Results published in BindingDB's records for doi:10.1021/acs.jmedchem.9b01226 (Purdue University, 2020).
pIC50: −log10 of the molar value.

Columns and labels:
[1] = target: T1, Proteasome subunit beta type-8 (Homo sapiens, UniProt P28062); assay: Inhibition of immunoproteasome subunit LMP7 in human RPMI8226 cells assessed as reduction in cell viability incubated for 48 hrs by MTT assay
T1 sequence (P28062 whole entry): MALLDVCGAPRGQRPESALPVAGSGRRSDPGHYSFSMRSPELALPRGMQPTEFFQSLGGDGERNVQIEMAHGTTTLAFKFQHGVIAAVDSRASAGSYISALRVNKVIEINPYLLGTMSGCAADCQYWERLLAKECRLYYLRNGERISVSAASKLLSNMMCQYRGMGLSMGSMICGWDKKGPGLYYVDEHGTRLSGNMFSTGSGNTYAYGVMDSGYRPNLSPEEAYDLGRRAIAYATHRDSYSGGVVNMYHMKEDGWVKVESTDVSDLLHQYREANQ

[2] = target: T1, Proteasome subunit beta type-8; assay: Inhibition of immunoproteasome subunit LMP7 in human KMS12PE cells assessed as reduction in cell viability incubated for 48 hrs by MTT assay
[3] = target: T1, Proteasome subunit beta type-8; assay: Inhibition of immunoproteasome subunit LMP7 in human INA60 cells assessed as reduction in cell viability incubated for 48 hrs by MTT assay
[4] = target: T1, Proteasome subunit beta type-8; assay: Inhibition of immunoproteasome subunit LMP7 in human OPM1 cells assessed as reduction in cell viability incubated for 48 hrs by MTT assay
[5] = target: T1, Proteasome subunit beta type-8; assay: Inhibition of immunoproteasome subunit LMP7 in human DOX40 cells assessed as reduction in cell viability incubated for 48 hrs by MTT assay
[6] = target: T1, Proteasome subunit beta type-8; assay: Inhibition of immunoproteasome subunit LMP7 in human MM.1R cells assessed as reduction in cell viability incubated for 48 hrs by MTT assay
[7] = target: T1, Proteasome subunit beta type-8; assay: Inhibition of immunoproteasome subunit LMP7 in human LR5 cells assessed as reduction in cell viability incubated for 48 hrs by MTT assay
[8] = target: T1, Proteasome subunit beta type-8; assay: Inhibition of immunoproteasome subunit LMP7 in human MM.1S cells assessed as reduction in cell viability incubated for 48 hrs by MTT assay
[9] = target: T1, Proteasome subunit beta type-8; assay: Inhibition of immunoproteasome subunit […] in human OPM1 cells assessed as reduction in cell viability incubated for 48 hrs by MTT assay

Measured: pIC50

CC1=C(C(=O)N[C@H](C)C(=O)N[C@@H](Cc2c[nH]c3ccccc23)C(=O)N[C@@H](Cc2ccccc2)C(=O)[C@@]2(C)CO2)Cc2ccccc21
5.52: all assays above
